Columns and labels:
[1] = biological target: T1, SARS-CoV-2 PL^pro (PL^pro; PL^pro-His) (Severe acute respiratory syndrome coronavirus 2, UniProt P0DTD1); experiment: FRET peptide cleavage assay; type: biochemical; conditions: Dabcyl-FTLRGG/APTKV-Edans substrate, 200 nM PLpro
T1 construct: gene rep

SARS-CoV-2 M^pro = biological target: T2, SARS-CoV-2 M^pro (Severe acute respiratory syndrome coronavirus 2, UniProt P0DTD1); experiment: Mpro FRET peptide assay; type: biochemical; conditions: pH 6.5; Dabcyl-KTSAVLQ/SGFRKME(Edans) substrate
T2 construct: gene rep

[2] = biological target: T3, SARS-CoV-2 PL^pro (pcDNA3.1 SARS2 PL^pro, FlipGFP assay) (Severe acute respiratory syndrome coronavirus 2, UniProt P0DTD1); experiment: FlipGFP-PLpro reporter assay; type: cell-based; conditions: GFP/mCherry ratio, 48 h
T3 construct: gene rep

| Molecule | IC50 [1] | inhibition at up to 200 μM (SARS-CoV-2 M^pro) | EC50 [2] |
| --- | --- | --- | --- |
| C[C@H](c1ccc(Cl)cc1)N(C)Cc1cc(O)ccc1Cl [Jun9-13-4] | > 20000 nM |  |  |
| CC(c1ccccc1Cl)N(C)Cc1cc(O)ccc1Cl (centres unmarked) [Jun9-13-7] | 7290 ± 1030 nM | > 200 µM |  |
| CC(c1cc(F)ccc1F)N(C)Cc1cc(O)ccc1Cl (centres unmarked) [Jun9-29-5] | > 20000 nM |  |  |
| Cc1ccc(N)cc1CN(C)[C@H](C)c1cccc2ccccc12 [Jun9-53-2] | 890 nM |  |  |
| C[C@H](c1cccc2ccccc12)N(C)Cc1cccc2[nH]ccc12 [Jun9-75-4] | 620 nM |  |  |
| Jun9-75-5 | 560 nM |  | > 60000 nM |

— paper doi:10.1101/2021.03.15.435551, “Discovery of SARS-CoV-2 papain-like protease inhibitors through a combination of high-throughput screening and FlipGFP-based reporter assay” (bioRxiv, 2021)
